One series has as its system dog hepatocytes. Description: Phase II metabolism assay of n-butylidenephthalide, dog hepatocytes, LC-MS/MS. It counts as in vitro ADME. The conditions noted are these: Dog cryopreserved hepatocytes, BP 50 μM, 37° C., 6 hours. The source says:
(§1) It has been known that the medicine metabolic pathway within an organism's liver can be primarily divided into phase I and phase II metabolism. Phase I metabolism occurs mainly by the redox reaction or hydrolysis reaction of medicine, while phase II metabolism occurs mainly by […]. This example simulated the phase I and II metabolism of butylidenephthalide that occur within an organism's liver by respectively mixing butylidenephthalide with hepatic microsomes or cryopreserved hepatocytes in vitro. The products in the reaction solution were analyzed by liquid chromatograph-tandem mass spectrometer (LC-MS/MS) to identify the metabolites and the metabolic profile. The experimental steps were as follows:
(§2) William's E medium containing 5×10^5 thawed human, rat or dog hepatocytes were respectively added into a 12-well culture dish, and the cells were cultured for 6 hours. Then, 0.5 mL of n-butylidenephthalide (comprising Z-BP 95%+E-BP 5%; purchased from ECHO Chemical) (50 μM) was added into the culture dish. After the cells were incubated at 37° C., 95% relative humidity and 5% CO2 for 6 hours, 2 mL of acetonitrile (100%) was added to terminate the reaction. […] The supernatant was then collected, dried, and analyzed by LC-MS/MS to identify the metabolites of n-butylidenephthalide. […]

The nature of series [1]: Phase I metabolism assay of n-butylidenephthalide, rat hepatic microsomes, LC-MS/MS. The conditions noted are these: Rat hepatic microsomes 0.5 mg/mL, BP 2 mM, NADPH, 37° C., 60 minutes. It counts as in vitro ADME.
From the text: as §1
(§3) n-Butylidenephthalide (comprising Z-BP 95%+E-BP 5%; purchased from ECHO Chemical) (2 mM) was mixed respectively with K3PO4 buffer solution (100 mM, pH7.4) containing human, rats or dogs hepatic micrsomes (0.5 mg/mL). The mixture was maintained at 37° C. for 10 minutes, and then pre-warmed cofactors (NADPH (2 mM) and MgCl2 (3 mM)) were added thereto and the mixture was incubated at 37° C. for 60 minutes. Thereafter, 3-fold volume of acetonitrile containing 0.1% formic acid was added to the mixture to terminate the reaction. The mixture was centrifuged at 13000 rpm for 5 minutes. The supernatant was then collected and analyzed by LC-MS/MS to identify the metabolites.
(§4) The samples obtained from (1) and (2) were separately dissolved in acetonitrile/0.1% formic acid, centrifuged at 45000 g, 4° C. for 10 minutes. Then, an aliquot (20 μl) of each sample was injected into an autosampler vial (Agilent Technologies, USA) of a LC-MS/MS system to perform LC-MS/MS analysis. The LC-MS/MS system comprises an ABSCIEX 5500 Q TRAP™ system with 1200SL HPLC system (Agilent Technologies, USA), a HPLC column (Symmetry® C18, 3.5 μM, 4.6×75 mm), and a autosampler (Agilent Technologies, USA). A two-solvent system (solvent A: 0.1% formic acid; solvent B: methanol containing 0.1% formic acid) was used to perform HPLC at a flow rate of 0.8 mL/min. The HPLC gradient system was set as follows: 0 to 2 minutes held at 10% solvent B; 2 to 7 minutes with a gradient from 10% to 95% solvent B; 7 to 12 minutes held at 95% solvent B; 12 to 14 minutes with a gradient from 95% to 10% solvent B; 14 to 20 minutes held at 10% solvent B; and the retention time of HPLC analysis is 20 minutes. The mass spectrometry analysis was performed in positive ion electrospray ionization (+ESI) mode at 5.5 kV, 550° C., and N2 (nitrogen) was used as an auxiliary gas. The most intense peaks in the LC-MS/MS spectrum and the mass-shifted peaks in the LC-MS/MS spectrum of each sample as compared to n-butylidenephthalide spectrum were analyzed by LightSight™ Software to determine the metabolites in the samples and identifying the biotransformation pathway and metabolic profile of n-butylidenephthalide in an organism. The results are shown in Table 1, Table 2, FIG. 1A, FIG. 1B and FIG. 1C.

Series [2] is described as follows: Phase I metabolism assay of n-butylidenephthalide, dog hepatic microsomes, LC-MS/MS. The class given is in vitro ADME. The settings on record: Dog hepatic microsomes 0.5 mg/mL, BP 2 mM, NADPH, 37° C., 60 minutes.
From the text: as §1, §3, §4

Series [3] in a line: Phase I metabolism assay of n-butylidenephthalide, human hepatic microsomes, LC-MS/MS. The class given is in vitro ADME. The conditions noted are these: Human hepatic microsomes 0.5 mg/mL, BP 2 mM, NADPH, 37° C., 60 minutes.
From the text: as §1, §3, §4

Series [4] has as its system SOD1-G93A transgenic mice. The series is described as follows: Survival of SOD1-G93A transgenic mice (amyotrophic lateral sclerosis model). The class given is in vivo. The conditions noted are these: oral. The text has this: It has been known that about 20% of amyotrophic lateral sclerosis patients were associated with mutations in the gene that encodes Cu/Zn superoxide dismutase enzyme (SOD1), and G93A was the major mutation site.
(§5) This example used the above SOD1-G93A transgenic mice as the object of study to perform in vivo analysis.

Series [5] relates to SOD1-G93A transgenic mice. The series is described as follows: BBB scale of the hind limbs of SOD1-G93A transgenic mice. The conditions noted are these: 500 mg/kg once daily oral; FIG. 3. The class given is in vivo. The procedure: as §5
After the mice were treated for 30 days, the hind limbs of the mice were examined by BBB scale (Basso, Beattie, and Bresnahan (BBB) Locomotor Rating Scale). […] BBB scale is used to record the efficiency of the treatments.

The test system of series [6] is telomerase. The series is described as follows: Telomerase expression level of ADSCs (Telomerase PCR ELISA kit). The class given is cell-based, human. The conditions noted are these: 100 μM or 250 μM, 24 hours; FIG. 4. How it is done:
(§6) Human ADSCs were isolated from human adipose tissue by the following steps. Human adipose tissue from clinical research was washed with equal volumes of phosphate-buffered saline (PBS) and minced with fine scissors. Then, the tissue was digested with 0.075% collagenase type I (Sigma-Aldrich Co., St. Louis, Mo., USA) at 37° C. for 30 to 60 minutes, and a Dulbecco's modified Eagle's medium (DMEM)/F-12 (Invitrogen, Carlsbad, Calif., USA) containing 10% fetal bovine serum (FBS, Invitrogen) was added to terminate the digestion. The digested adipose tissue cells were filtered through a 100 μm nylon mesh to remove the cellular debris. The cell suspension was centrifuged for 10 minutes to obtain a pellet and cultured at 37° C., 5% CO2 in a culture media (DMEM/F-12 containing 10% FBS, 100 U/mL penicillin, and 100 μg/mL streptomycin). Following the incubation, the plates were washed with PBS to remove the residual non-adherent red blood cells. […]
The ADSCs were cultured in a 10 cm dish, and treated with valproic acid (VPA) (1 μM or 10 μM) or BP (comprising Z-BP 95%+E-BP 5%; purchased from ECHO Chemical) (100 μM or 250 μM) at different doses for 24 hours. Then, the telomerase expression level of the ADSCs was determined by a Telomerase PCR ELISA kit (Cat. No. 11854666910, Roche). […]
(ELISA stands for enzyme-linked immunosorbent assay.)

Series [7] relates to brain-derived neurotrophic factor (BDNF). The series is described as follows: Gene expression level in ADSCs by RT-PCR: BDNF. It counts as cell-based, human. The conditions noted are these: ADSCs, 10, 20 or 50 μg/ml (especially 20 μg/ml), 12 hours; FIG. 5. The procedure: as §6
(§7) ADSCs (2×10^5 cells/well) were cultured in a 6 well dish in a 37° C. incubator overnight. […] Thereafter, the gene expression levels of brain-derived neurotrophic factor (BDNF), stromal cell-derived factor-1 (SDF1), C-X-C chemokine receptor type 4 (CXCR4), interleukin 6 (IL-6), and interleukin 8 (IL-8) of the ADSCs were determined by RT-PCR. […]

For series [8], the system named is stromal cell-derived factor-1 (SDF1). Description: Gene expression level in ADSCs by RT-PCR: SDF1. It counts as cell-based, human. The conditions noted are these: ADSCs, 10, 20 or 50 μg/ml (especially 20 μg/ml), 12 hours; FIG. 5. How it is done: as §6, §7
Series [9] has as its system C-X-C chemokine receptor type 4 (CXCR4). Description: Gene expression level in ADSCs by RT-PCR: CXCR4. The class given is cell-based, human. The conditions noted are these: ADSCs, 10, 20 or 50 μg/ml (especially 20 μg/ml), 12 hours; FIG. 5. The procedure: as §6, §7
The next series deals with interleukin 6 (IL-6). Description: Gene expression level in ADSCs by RT-PCR: IL-6. It counts as cell-based, human. The settings on record: ADSCs, 10, 20 or 50 μg/ml, 12 hours; FIG. 5. How it is done: as §6, §7
For another series, the system named is interleukin 8 (IL-8). The series is described as follows: Gene expression level in ADSCs by RT-PCR: IL-8. The settings on record: ADSCs, 10, 20 or 50 μg/ml, 12 hours; FIG. 5. It counts as cell-based, human. The procedure: as §6, §7
The subject of the next series is rat hepatocytes. The series is described as follows: Phase II metabolism assay of n-butylidenephthalide, rat hepatocytes, LC-MS/MS. The class given is in vitro ADME. The settings on record: Rat cryopreserved hepatocytes, BP 50 μM, 37° C., 6 hours.
From the text: as §1, §2

Another series has as its system human hepatocytes. Description: Phase II metabolism assay of n-butylidenephthalide, human hepatocytes, LC-MS/MS. It counts as in vitro ADME. The settings on record: Human cryopreserved hepatocytes, BP 50 μM, 37° C., 6 hours.
From the text: as §1, §2

Series [10] concerns telomerase. The settings on record: previous research; cited from earlier work.
The mark [11] stands for this setting: 500 mg/kg-body weight once daily.

Take `C/C=C/C=C1\OC(=O)c2c(O[C@@H]3OC(CO)[C@@H](O)[C@H](O)C3O)cccc21` (stereo partly drawn) [Compound (14)]: the “Biotransformation pathway (Phase II metabolites of n-butylidenephthalide)” value with dog hepatocytes is “Dehydrogenation +”.
For the molecule `C=C1OC(=O)c2ccccc21` [Compound (8)], the “Biotransformation pathway (Phase I metabolites of n-butylidenephthalide)” value in series [1], in series [2] and in series [3] was “Tri-Demethylation” in each case.
As for `CCCC=C1OC(=O)C2=C1CCC=C2` [ligustilide, 3-butylidene-4,5-dihydrophthalide], the “Longevity prolonged as compared to the control group” value in series [4] (setting [11]) is on record as “about 74.8±1.2 days”. In series [5], the “Time after which the BBB scale of the hind limbs decreased rapidly” value is listed as greater than 170 days.
Turning to `CCCC=C1OC(=O)c2ccccc21` [BP, n-butylidenephthalide], the “Longevity prolonged as compared to the control group” value in series [4] (250 mg/kg-body weight twice daily) is on record as “about 91.3±16 days”; in series [4] (setting [11]), “about 22.7±2.8 days”. Also, the “Time after which the BBB scale of the hind limbs decreased rapidly” value in series [5] is recorded as greater than 135 days. Also, in the series with telomerase [6], the “Telomerase activity (expression level of telomerase) of ADSCs” value is given as “higher telomerase activity”. The “Gene expression level of BDNF” value in series [7] was “increased”. Besides, in [8], the “Gene expression level of SDF1” value was “increased”. The “Gene expression level of CXCR4” value in [9] is “increased”. In addition, the “Gene expression level of IL-6” value in the series with interleukin 6 (IL-6) was “increased”. The “Gene expression level of IL-8” value with interleukin 8 (IL-8) is “increased”.
`C/C=C/C=C1\OC(=O)c2ccccc21` [Compound (2)]: the “Biotransformation pathway (Phase I metabolites of n-butylidenephthalide)” value in series [1], in [2] and in series [3] was “Dehydrogenation” in each case.
In the case of `C/C=C/C=C1\OC(=O)c2c1cccc2S(=O)(=O)O` [Compound (12)], the “Biotransformation pathway (Phase II metabolites of n-butylidenephthalide)” value with rat hepatocytes and with human hepatocytes was “Dehydrogenation +” in each case.
`CCCC(CCC)C(=O)O` [VPA, valproic acid]: in the series on telomerase [10], the “Telomerase activity of ADSCs” value is recorded as “could increase the telomerase activity”.
Regarding `CCCCC1(O)OC(=O)c2ccccc21` (stereo not drawn) [Compound (7)], the “Biotransformation pathway (Phase I metabolites of n-butylidenephthalide)” value in [1], in [2] and in series [3] was “Hydrogenation (forming” in each case.
For the molecule `CC(O)C/C=C1\OC(=O)c2ccccc21` (stereo not drawn) [Compound (4)], the “Biotransformation pathway (Phase I metabolites of n-butylidenephthalide)” value in series [1], in series [2] and in series [3] was “Oxidation” each time.
With `CCCCC(=O)c1ccccc1C(=O)O` [Compound (5)], the “Biotransformation pathway (Phase I metabolites of n-butylidenephthalide)” value in series [1], in series [2] and in [3] was “Hydrogenation (forming” in each case.

The values are drawn from patent US11013716B2, “Method for providing an increased expression of telomerase, brain-derived neurotrophic factor, stromal cell-derived factor-1, CXC chemokine receptor 4, and/or immune regulatory factor of stem cell” (HAWKING BIOLOGICAL TECHNOLOGY CO., LTD, priority 2013, dated 2021).
